Test results: patent US20250215015A1 (THE REGENTS OF THE UNIVERSITY OF CALIFORNIA, priority 2022, published 2025)
Like-named read-outs stand apart in the source and are kept apart here.

Experiments:
U87 GBM = assay: GBM agent potency in U87 cells; type: cell-based
From the text: UCN-01 potency. The potency of UCN-01 markedly exceeds that of standard GBM agents in GBM U87 cells (Table 1), and it engages a unique pattern of signaling pathways to drive apoptosis. The ability of UCN-01 at noncytotoxic doses to abrogate G2 arrest is evident in p53 dysregulated cells. p53 is mutated in about 35% of primary GBM and 65% of secondary GBM. p53 pathway dysregulation occurs in 86% of GBM.

phosphorylation of Akt = assay: Western blot for Akt, P-Akt, cleaved PARP; type: cell-based; conditions: U87 cells
From the text: FIG. 5A: Western blot analysis for Akt, P-Akt, cleaved PARP. […] Representative blot from two independent experiments is shown.

U87 cells = assay: FACS analysis for DNA content; type: cell-based; conditions: treated cells
U87 flank tumors = assay: U87 flank tumor growth in mice; type: in vivo, nu/nu mice
[1] = Toxicity in mice: body weight and liver enzymes; type: in vivo; conditions: mice bearing U87 GBM flank tumors
From the text: Weight declined with STS but not PBS or LSTS. Bottom panel is bar graph depicting liver enzymes ALT/AST before and after treatment. For free STS the post treatment levels were flagged as abnormal (stars). ALT/AST enzyme levels were normal with empty liposomes (control) and LSTS. Reference levels shown by dashed lines.

[2] = In vitro unbound fraction of UCN-01 in human plasma; type: in vitro ADME; design: dose or concentration left out as unconfirmed
From the text: (§1) UCN-01 pharmacokinetics and nanoliposomes. Free UCN-01 is instantly bound by human alpha-1 acid glycoprotein (AAG) plasma protein with extremely high affinity and remains in circulation for remarkably extended periods of time. […] Unfortunately this greatly diminishes the availability of free (active) compound so that the in vivo effectiveness of UCN-01 is compromised even when it enters tumor tissue when bound to AAG the UCN-01 molecule is not bioavailable. Increasing the UCN-01 dose to sufficiently saturate AAG in the plasma elevates the risk of toxicity.

[3] = In vitro unbound fraction of UCN-01 in mouse plasma; type: in vitro ADME; design: dose or concentration left out as unconfirmed
From the text: as §1

[4] = In vitro unbound fraction of UCN-01 in rat plasma; type: in vitro ADME; design: dose or concentration left out as unconfirmed
From the text: as §1

[5] = In vitro unbound fraction of UCN-01 in dog plasma; type: in vitro ADME; design: dose or concentration left out as unconfirmed
From the text: as §1

[6] = test system: GBM patient cancer stem cell derived GBM tumorsphere lines; assay: GBM cytotoxicity, MTT assay in tumorsphere lines; type: cell-based; conditions: 8 GBM tumorsphere lines, almost all cell lines
Description: GBM cytotoxicity with UCN-01. 8 different GBM patient cancer stem cell derived GBM tumorsphere lines were incubated with a range of UCN-01 doses. The percent viable cells were determined with the MTT assay.

[7] = test system: radioresistant U87 GBM cells; assay: GBM radiosensitization in culture; type: cell-based; conditions: mildly cytotoxic nM levels, clinically relevant radiation doses
Description: Bar graph of radiation dose and UCN-01 dose (nM) vs percent viable U87 GBM cells. Red columns for 0 Gy and purple for 5 Gy—a clinically relevant dose.
GBM radiosensitization with low doses of the staralog UCN-01. […] As a precursor to studies with a range of staralogs, extensive model investigations with the class parent staralog model system, STS were performed.

U87 glioblastoma cells = assay: Potentiation of temozolomide; type: cell-based

`O=NN(CCCl)C(=O)NCCCl` [BCNU] showed an IC50 (U87 GBM) of 60000 nM.
Work on `O=c1[nH]cc(F)c(=O)[nH]1` [Compound 5-FU, 5-FU] yielded an IC50 (U87 GBM) of 2500 nM.
For `COc1cccc2c1C(=O)c1c(O)c3c(c(O)c1C2=O)C[C@@](O)(C(=O)CO)C[C@@H]3O[C@H]1C[C@H](N)[C@H](O)[C@H](C)O1` [Doxorubicin], the IC50 (U87 GBM; Homo sapiens, U-87 MG) was 1000 nM.
For `CN[C@@H]1C[C@H]2O[C@@](C)([C@@H]1OC)n1c3ccccc3c3c4c(c5c6ccccc6n2c5c31)C(=O)NC4` [STS, Staurosporine], the PARP cleavage (phosphorylation of Akt) was “stimulated caspase 3 dependent PARP cleavage”, the phospho-Akt (phosphorylation of Akt) was “suppression of phospho-Akt” and the “DNA content (FACS)” value (U87 cells) was “G0 shift consistent with apoptosis”. For the same compound, the “in vivo GBM proliferation (Ki-67)” value (U87 flank tumors) was “did not” and the body weight [1] was “reduction in body weight”.
`Cn1nnc2c(C(N)=O)ncn2c1=O` [Temozolomide] showed an IC50 (U87 GBM; Homo sapiens, U-87 MG) of 50000 nM.
Work on `CN[C@@H]1C[C@H]2O[C@@](C)([C@@H]1OC)n1c3ccccc3c3c4c(c5c6ccccc6n2c5c31)C(=O)N[C@H]4O` [UCN-01, 7-hydroxystaurosporine] yielded an IC50 (U87 GBM) of 50 nM, an Unbound fraction % [2] of less than 0.02% and an Unbound fraction % [3] of 1.14%. For the same compound, the Unbound fraction % [4] was 1.75%, the Unbound fraction % [5] was 0.49% and the IC50 values [6] was “low nanomolar (nM) range”. For the same compound, the sensitization to radiation [7] was “able to sensitize” and the “potentiation of temozolomide (TMZ)” value (U87 glioblastoma cells) was “potentiated temozolomide (TMZ)”.
